Drawing on patent US9505739B2, “Spiropyrrolidine beta-secretase inhibitors for the treatment of alzheimer's disease” (Merck Sharp & Dohme Corp., priority 2009, dated 2016), this text covers IC50 for one compound.

This assay concerns the target BACE 1 (Homo sapiens (Human), UniProt P56817). Put plainly: ECL assay: homogeneous end point electrochemiluminescence assay of beta-secretase inhibition with biotinylated BACE substrate. It is filed as biochemical. As to conditions: soluble human BACE 1, pH 6.5, rt. How it is done: Enzyme inhibition is determined as follows.
ECL Assay: A homogeneous end point electrochemiluminescence (ECL) assay is performed using a biotinylated BACE substrate. The Km of the substrate is approximated at 50 μM. A typical reaction contains approximately 0.6 nM enzyme, 0.25 μM of the substrate, and buffer (50 mM Pipes, pH 6.5, 0.1 mg/ml BSA, 0.2% CHAPS, 15 mM EDTA and 1 mM deferoxamine) in a total reaction volume of 100 μl. The reaction proceeds for 1-2 hrs and is then stopped by the addition of 150 μL of a quench cocktail solution (25 μl M Tris-HCl, pH 8.0, 50 μl INC buffer (2% BSA, 0.2% Tween-20 and 0.05% sodium azide diluted in Phosphate buffered saline (PBS) plus 75 μL PBS), containing Streptavidin coated magnetic beads and ruthenylated antibody which specifically recognizes the C-terminal residue of the product. The samples are subjected to M-384 (Igen Inc., Gaithersburg, Md.) analysis. Under these conditions, less than 10% of substrate is processed by BACE 1. The enzyme used in these studies is soluble (transmembrane domain and cytoplasmic extension excluded) human protein produced in a baculovirus expression system. To measure the inhibitory potency for compounds, 10 concentrations of inhibitors are prepared starting from 200 μM with three fold series dilution. Solutions of the inhibitor in DMSO are included in the reaction mixture (final DMSO concentration is 10%). […]

pIC50: −log10 of the molar value.

Chain of BACE 1 (P56817 46-457): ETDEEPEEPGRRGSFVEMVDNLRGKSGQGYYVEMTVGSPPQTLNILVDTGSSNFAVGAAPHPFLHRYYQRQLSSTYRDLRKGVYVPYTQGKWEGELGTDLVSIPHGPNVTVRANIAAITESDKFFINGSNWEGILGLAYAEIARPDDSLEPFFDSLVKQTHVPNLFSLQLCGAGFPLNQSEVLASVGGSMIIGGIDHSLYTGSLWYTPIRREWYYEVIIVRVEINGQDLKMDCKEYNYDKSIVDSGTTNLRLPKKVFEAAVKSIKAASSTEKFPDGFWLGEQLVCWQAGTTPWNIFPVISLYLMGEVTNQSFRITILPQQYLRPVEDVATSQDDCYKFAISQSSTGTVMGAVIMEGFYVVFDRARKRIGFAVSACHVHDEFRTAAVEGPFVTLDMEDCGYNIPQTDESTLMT

For orientation: pIC50 means the IC50 on a negative log10 scale, so that one unit is a factor of ten. `Cc1cccc(C2CC(c3ccccc3)CCN2C(=O)[C@@H]2CNC[C@]23CCCc2nc(Cl)ccc23)c1` (stereo partly drawn) [Example 100, [(3R,4S)-2′-chloro-7′,8′-dihydro-6′H-spiro [pyrrolidine-3,5′-quinolin]-4-yl][2-(3-methylphenyl)-4-phenylpiperidin-1-yl] methanone] gave a pIC50 of 6.35.
